Holding throughout (assay type): cell-based, human
One assay deals with MAP2K1. Kind of assay: Western blot, phospho-MAP2K1 to total ratio in Daoy cell lysates. As to conditions: PDGFA 10 ng/ml. As to the method:
(§1) Daoy cells were treated in a manner identical to that described above for migration. After described incubation with PDGFA, PDGFRA antibody, or MAP2K1/MAP2K2 inhibitor U0126, we prepared cell lysates by adding 500 ul lysis buffer (Cell Signaling Technology) to cell pellets on ice for 20 min, sonicating, and centrifuging at 10,000 RPM for 10 min. We collected the supernatants and mixed equal amounts of lysate protein (5.2 ug) in a 1:1 mixture with Tris-Glycine SDS sample buffer Covex). Samples were run on a 12% SDS-PAGE gel (BioRad) along with broad range protein markers (BioRad) at 125 V for 1 h. We transferred proteins to PVDF membrane (NEN Life Sciences) using a semi-dry transfer cell (BioRad). We first soaked the membrane in anhydrous methanol for 2 min, deionized water for 5 min, and transfer buffer (25 mM Tris, 0.2 M glycine, 20% methanol, pH 8.5) for 10 min. The gels were pre-soaked in transfer buffer for 15 min and subsequently electro-blotted to the membrane between filter paper soaked in transfer buffer for 45 min at a current equivalent to 2.5 × total gel area (cm^2). Following blotting, we incubated the membrane in blocking buffer (3% BSA in TBS-T) for 1 h at room temperature with gentle agitation. […] We scanned the developed films, and determined the optical density of each lane using NIH Image (available at http://rsb.info.nih.gov/nih-image/Default.html). […]
For orientation: A western blot detects proteins with antibodies after separation by electrophoresis.

Another assay deals with MAPK1/3. Nature of the assay: Western blot, phospho-MAPK1/3 to total ratio in Daoy cell lysates. Here is the method: as §1, with “agitation. We subsequently incubated the membrane with primary antibody (MAP2K1/2 antibody, phospho-MAP2K1/2 (Ser217/221) antibody, MAPK1/3 (p42/p44 MAPK) antibody, or phospho-MAPK1/3 (Thr202/Tyr204) antibody; Cell Signaling Technology) diluted 1:1000 in blocking buffer overnight at 4° C. We washed the membranes in wash buffer (1% BSA in TBS-T) 3 times (1× for 10 min and 2× for 5 min) and incubated them with anti-rabbit HRP-conjugated secondary antibody (Cell Signaling Technology) diluted 1:2000 in blocking buffer for 1 h with gentle agitation at room temperature. We subsequently washed membranes with gentle agitation 5 times with 1%BSA in TBS-T (1× for 10 min in, 4× for 5 min) and once in TBS-T for 5 min.” for “agitation.”

Assay [1] deals with Daoy cells. Kind of assay: Fibronectin-mediated cell migration assay (Boyden chamber, Chemicon QCM-FN). As to the method:
Fibronectin-mediated cell adhesion and migration were assessedusing the Chemicon QCM-FN Quantitative Cell Migration Assay (Chemicon International). Briefly, Daoy cells were grown in EMEM withh 10% FBS to 80% confluency and starved in serum-free EMEM for 24 h. Cells were washed twice with PBS, harvested them with trypsin/EDTA, and resuspended them in serum-free EMEM (1×10^6 cells/ml) with 5% BSA for 1 h. We subsequently incubated cells at 37 ° C. for 30 min with either no antibody, 0.6 ug/ml of neutralizing monoclonal anti-human PDGFRA antibody (R&D Systems), 0.6 ug/mi isotype-matched control antibody (R&D Systems), and or first pretreated them with 10 μM of MAP2K1/MAP2K2 inhibitor U0126 (Cell Signaling Technology) for 1 h. We based the concentration of antibody used on the ND50 for this lot of antibody for blocking 10 ng/ml of PDGFRA biologic activity on human WS1 cells (per R&D Systems product insert). We based the concentration of MAP2K1/MAP2K2 inhibitor U0126 used on the manufacturer?s recommendation. Following incubations, we resuspended the cells, and placed aliquots of 2×10^5 cells in 200 ul of serum-free EMEM into the upper fibronectin-(FN-) coated or BSA-coated (control) Boyden chambers (migration assay), or FN-coated wells (adhesion assay). The lower well contained 0, 1, 2, 4, 6, 8, or 10 ng/ml PDGFA (Chemicon) in 300 ll serum-free EMEM. We incubated the cells for 3 h at 37° C., stained them with cell stain solution (Chemicon), and subsequently washed them. We removed the medium, as well as non-adherent or non-migrating cells, from the upper side of the Boyden chamber membranes. We first visualized the cells by microscopy, and then subsequently eluted migrating or adherent cells with extraction solution (Chemicon) according to the manufacturer? s instructions. We aliquoted eluant (50 μl)×2 for each test sample into microtiter plates, and read the optical density (OD540-570) on a ThermoMax microplate reader (Molecular Devices). Using standardized migration rates of 130 cells per mm^2 equivalent to an OD550 of 0.270 (per Chemicon product insert), we obtained the final cell counts by averaging the two OD measurements (540 nm and 570 nm) after subtraction of the BSA control measurements (background), and determined significance (P value) using a t-test.
We tested the significance of PDGFRA in the metastatic potential of Daoy cells by fibronectin-dependent adhesion and migration assays.
To further test whether medulloblastoma migration is directly linked in part to downstream MAP2K1, MAP2K2 and MAPK1/3 activation, Daoy migration was tested in an identical fashion to that described above, except that cells were pretreated with U0126, a highly specific chemical inhibitor of MAP2K1 and MAP2K2 (FIG. 5b).

The test system of another assay is MAP2K2. Nature of the assay: Western blot, phospho-MAP2K2 to total ratio in Daoy cell lysates. As to conditions: PDGFA 10 ng/ml. As to the method: as §1
In assay [2] the test system is Daoy cells. Kind of assay: Fibronectin-mediated cell adhesion assay (Chemicon QCM-FN). As to conditions: increasing concentrations of PDGFA, no antibody. As to the method:
Fibronectin-mediated cell adhesion and migration were assessedusing the Chemicon QCM-FN Quantitative Cell Migration Assay (Chemicon International). Briefly, Daoy cells were grown in EMEM withh 10% FBS to 80% confluency and starved in serum-free EMEM for 24 h. Cells were washed twice with PBS, harvested them with trypsin/EDTA, and resuspended them in serum-free EMEM (1×10^6 cells/ml) with 5% BSA for 1 h. We subsequently incubated cells at 37 ° C. for 30 min with either no antibody, 0.6 ug/ml of neutralizing monoclonal anti-human PDGFRA antibody (R&D Systems), 0.6 ug/mi isotype-matched control antibody (R&D Systems), and or first pretreated them with 10 μM of MAP2K1/MAP2K2 inhibitor U0126 (Cell Signaling Technology) for 1 h. […] We aliquoted eluant (50 μl)×2 for each test sample into microtiter plates, and read the optical density (OD540-570) on a ThermoMax microplate reader (Molecular Devices). Using standardized migration rates of 130 cells per mm^2 equivalent to an OD550 of 0.270 (per Chemicon product insert), we obtained the final cell counts by averaging the two OD measurements (540 nm and 570 nm) after subtraction of the BSA control measurements (background), and determined significance (P value) using a t-test. […]

From patent US20040126755A1, “Gene expression based method for distinguishing metastatic from non-metastatic forms of a tumor, and use in designing therapeutic drugs” (priority 2001, published 2004) come the findings set out here.

For the compound “PDGFA: PDGFRA ligand, growth factor (Chemicon) used to stimulate Daoy cells”, in the assay with MAP2K1, the “increase in MAP2K1 phosphorylation, fold” value amounted to 1.6 fold. Besides, the “increase in MAPK1/3 phosphorylation, fold” value in the assay with MAPK1/3 (PDGFA 10 ng/ml) was 1.7 fold. Besides, the “stimulation of Daoy migration across fibronectin-coated membranes, fold” value in the assay with Daoy cells [1] (1 ng/ml PDGFA in lower well, vs no PDGFA) was “approximately 3 fold”. Besides, the Daoy cell migration in the assay with Daoy cells [1] (1 ng/ml PDGFA in lower well, untreated 212) was 640 cells/mm^2; in the assay on Daoy cells [1] (4 ng/ml PDGFA in lower well, untreated 212) it was 819 cells/mm^2; in the assay on Daoy cells [1] (10 ng/ml PDGFA in lower well, untreated 212), 847 cells/mm^2. The “increase in Daoy migration, fold” value with Daoy cells [1] (10 ng/ml PDGFA in lower well, vs no PDGFA) is 4 fold. Further, in the assay on MAP2K2, the “increase in MAP2K2 phosphorylation, fold” value stood at 1.3 fold. Further, in the assay on Daoy cells [2], the “effect on adhesion of Daoy cells to fibronectin” value was “did not affect the adhesion”.
For the compound `N#CC(=C(/N)Sc1ccccc1N)/C(C#N)=C(\N)Sc1ccccc1N` [U0126], in the assay with MAPK1/3 (U0126 10 μM pretreatment 1 h, at start of migration assay), the “decrease in baseline phosphorylation of MAPK1/3, fold” value is recorded as 9 fold. The “effect on PDGFA-mediated MAPK1/3 phosphorylation” value in the assay on MAPK1/3 (U0126 pre-treatment then PDGFA (FIG. 6b)) was “blocks PDGFA-mediated MAPK1/3 phosphorylation”. Also, in the assay on Daoy cells [1] (U0126 10 μM pretreatment, no PDGFA), the “decreased cell migration, %” value came to 50%. For the same compound, the “migration, % of normal baseline migration” value was determined as 57% with Daoy cells [1] (U0126 treated cells, 1 ng/ml PDGFA) and 65% in the assay on Daoy cells [1] (U0126 treated cells, 10 ng/ml PDGFA). In addition, the Daoy cell migration with Daoy cells [1] (U0126 treated cells, 1 ng/ml PDGFA, baseline 275, P<0.05) stood at 158 cells/mm^2; in the assay with Daoy cells [1] (U0126 treated cells, 10 ng/ml PDGFA, baseline 275, P<0.05), 188 cells/mm^2; in the assay with Daoy cells [1] (U0126 treated cells, no PDGFA, untreated 275, P<0.05), 139 cells/mm^2.
